Active and inactive are the calls of the source.
Key:
[1] = target: ATP-dependent translocase ABCB1 (Homo sapiens, UniProt P08183); assay: ABCB1 efflux inhibition concentration-response, dose response, Jurkat-DNR cells, JC-1, flow cytometry, follow-up (AID 489002); assay type: functional
[2] = target: 1-phosphatidylinositol 4,5-bisphosphate phosphodiesterase beta-3 (Homo sapiens, UniProt Q01970); assay: Fluorescence-based biochemical high throughput dose response assay to identify inhibitors of phospholipase C isozymes (PLC-B3).
[3] = target: 1-phosphatidylinositol 4,5-bisphosphate phosphodiesterase gamma-1 (Homo sapiens, UniProt P19174); assay: Counterscreen for inhibitors of phospholipase C isozymes (PLC-B3): Fluorescence-based biochemical high throughput dose response assay to identify inhibitors of phospholipase C isozymes (PLC-gamma1).
[4] = human group III sPLA2 inhibitors, dose response, biochemical, QFRET, IC50 (AID 743457);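 further: green fluorescence rise as the enzyme cleaves BODIPY PC-A2 in liposomes; potency for inhibition of the enzyme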
[5] = target: T1, Corticotropin-releasing factor receptor 2/Corticotropin-releasing factor-binding protein (Homo sapiens, UniProt P24387+Q13324); assay: activators of CRF receptor 2 with binding protein – uHTS hits, confirmation (AID 602473); assay type: functional; details: read-out: EC50_Mean
T1 sequence (Q13324 whole entry): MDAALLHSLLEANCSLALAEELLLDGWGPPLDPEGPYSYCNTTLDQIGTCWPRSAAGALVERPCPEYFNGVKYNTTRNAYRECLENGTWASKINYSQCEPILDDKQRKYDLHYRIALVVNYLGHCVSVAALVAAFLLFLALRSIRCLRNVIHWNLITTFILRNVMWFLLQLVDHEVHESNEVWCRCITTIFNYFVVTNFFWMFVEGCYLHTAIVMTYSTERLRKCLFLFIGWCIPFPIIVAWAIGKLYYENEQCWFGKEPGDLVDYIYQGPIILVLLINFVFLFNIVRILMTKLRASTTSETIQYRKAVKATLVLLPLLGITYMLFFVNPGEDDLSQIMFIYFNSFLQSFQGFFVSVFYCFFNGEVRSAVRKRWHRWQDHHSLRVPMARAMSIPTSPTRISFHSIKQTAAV
T1 sequence (P24387 whole entry): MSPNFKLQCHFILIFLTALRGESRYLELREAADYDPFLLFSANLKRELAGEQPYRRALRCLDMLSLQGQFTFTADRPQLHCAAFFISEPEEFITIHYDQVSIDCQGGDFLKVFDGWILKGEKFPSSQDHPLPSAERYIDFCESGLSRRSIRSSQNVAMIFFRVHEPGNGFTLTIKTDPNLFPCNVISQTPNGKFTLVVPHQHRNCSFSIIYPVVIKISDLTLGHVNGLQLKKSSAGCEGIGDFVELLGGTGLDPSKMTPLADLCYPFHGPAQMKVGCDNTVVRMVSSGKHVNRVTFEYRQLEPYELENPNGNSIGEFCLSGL

[6] = HepG2 cell cytotoxicity, dose response, cytotoxicity control, ATP luminescence, cherry-pick, set 6 (AID 1053125); assay type: functional, cell-based
cells = details: A549
[7] = Late stage assay provider results from the probe development effort to identify inhibitors of the Plasmodium falciparum M17 Leucine Aminopeptidase (M17LAP): radiolabel-based cell-based dose response assay to identify compounds that inhibit P. falciparum growth in RBCs Set 2.; assay type: functional
Hexokinase HKDC1 = target: T2, Hexokinase HKDC1 (Homo sapiens, UniProt Q2TB90); assay: HKDC1 hexokinase activators, dose response, biochemical, W721R variant (AID 504730); assay type: functional
T2 sequence (Q2TB90 whole entry): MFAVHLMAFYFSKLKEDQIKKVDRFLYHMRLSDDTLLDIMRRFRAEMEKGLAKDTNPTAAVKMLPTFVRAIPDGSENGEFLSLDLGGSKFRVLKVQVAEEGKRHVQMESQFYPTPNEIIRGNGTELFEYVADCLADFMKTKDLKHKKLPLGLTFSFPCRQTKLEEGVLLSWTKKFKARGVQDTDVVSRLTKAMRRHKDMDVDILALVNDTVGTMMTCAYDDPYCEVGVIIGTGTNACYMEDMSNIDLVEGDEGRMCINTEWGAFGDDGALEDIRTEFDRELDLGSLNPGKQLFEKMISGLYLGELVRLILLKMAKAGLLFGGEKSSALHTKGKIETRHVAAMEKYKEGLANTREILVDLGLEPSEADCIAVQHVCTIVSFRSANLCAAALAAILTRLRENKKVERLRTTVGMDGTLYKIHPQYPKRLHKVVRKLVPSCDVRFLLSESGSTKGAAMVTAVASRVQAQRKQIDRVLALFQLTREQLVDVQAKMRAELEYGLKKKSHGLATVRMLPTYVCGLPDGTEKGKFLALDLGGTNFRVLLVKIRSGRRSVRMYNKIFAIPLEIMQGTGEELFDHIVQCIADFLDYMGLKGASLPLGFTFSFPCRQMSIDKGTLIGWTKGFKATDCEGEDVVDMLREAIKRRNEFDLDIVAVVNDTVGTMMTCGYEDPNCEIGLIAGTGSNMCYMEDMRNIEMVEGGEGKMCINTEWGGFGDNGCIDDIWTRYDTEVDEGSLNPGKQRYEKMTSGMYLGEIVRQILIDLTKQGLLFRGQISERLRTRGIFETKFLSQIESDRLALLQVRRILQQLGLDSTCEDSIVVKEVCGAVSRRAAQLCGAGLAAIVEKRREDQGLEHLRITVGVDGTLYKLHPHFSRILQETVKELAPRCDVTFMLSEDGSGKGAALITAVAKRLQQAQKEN

Vero = assay: host cell cytotoxicity of antiviral hits, dose response, cytotoxicity control for West Nile virus antiviral project, secondary assay (AID 1650); assay type: functional; details: Chlorocebus sabaeus
[8] = target: Heat shock protein HSP 90-alpha (Homo sapiens, UniProt P07900); assay type: functional, organism-based
Nonstructural protein 1 = Nonstructural protein 1 (Influenza A virus, UniProt Q194T2); assay type: functional, Influenza A virus (A/California/07/2009(H1N1))
Streptococcus = assay: Group A Streptococcus viability loss, dose response, counter-screen for streptokinase expression inhibitor project, luminescence, BacTiterGlo (AID 1915); assay type: functional, organism-based;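 further: potency for reduction of bacterial viability or growth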
Hexokinase-1 = Hexokinase-1 (Homo sapiens, UniProt P19367); assay: hexokinase 1 activators, dose response, selectivity assay for HKDC1 activator project, biochemical (AID 504762); assay type: functional
[9] = cytotoxicity in MIN6 insulinoma cells, dose response, cytotoxicity control, cell-based, mouse insulinoma (AID 2122); assay type: functional;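 further: confirmatory high-throughput counterscreen run to flag cytotoxic compounds; mouse MIN-6 beta cells carrying an insulin promoter eGFP reporter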
BJ [10] = assay: cytotoxicity toward Ras-transformed BJeLR fibroblasts, dose response, cell-based, alamar blue fluorescence, cherrypicked samples (AID 2631); assay type: functional; details: Homo sapiens;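 further: confirmatory dose-response assay in RAS-dependent BJ fibroblasts engineered with TERT, LT and ST, with cytotoxicity read by fluorescence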
[11] = insulin promoter down-regulators in MIN6 cells, imaging, high-content screening, mouse beta cells (AID 1628); assay type: functional
INS1 = assay: beta cell apoptosis inhibitors, cytokine rescue, dose response, luminescence, retest (AID 449756); assay type: functional, cell-based; details: Rattus norvegicus;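 further: cell death triggered by IL-1 beta plus TNF-alpha plus IFN-gamma mixture; protective hits raise ATP signal compared with cytokine alone wells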
BJ [12] = assay: cytotoxicity toward BJ-TERT-LT-ST fibroblasts, dose response, cell-based, RAS-independent, luminescence (AID 1935); assay type: functional; details: Homo sapiens;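 further: BJ fibroblasts immortalized with TERT plus LT and ST oncogenes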
[13] = HepG2 cell cytotoxicity, dose response, cytotoxicity control, ATP luminescence, cherry-pick, activator set 2 (AID 1053143); assay type: functional, cell-based
BJ [14] = assay: cytotoxicity toward BJ-TERT fibroblasts, dose response, cell-based, RAS-independent, luminescence (AID 1933); assay type: functional; details: Homo sapiens
BJ [15] = assay: cells; assay type: functional, cell-based; details: Homo sapiens
[16] = test system: Streptococcus sp. 'group A'; assay: growth inhibition of control SK(-) GAS strain, dose response, counter-screen for streptokinase expression inhibitor project, luminescence, kanamycin, BacTiterGlo, confirmation (AID 1900); assay type: functional, organism-based
[17] = cytotoxicity toward DRD oncogenic fibroblasts, dose response, cell-based, non-viral oncogenic, luminescence (AID 1934); assay type: functional; details: Homo sapiens
[18] = HEK293 cell cytotoxicity, dose response, cytotoxicity control, cherry-picks, set 5 (AID 1053117); assay type: functional, cell-based
[19] = A549 cell cytotoxicity, dose response, cytotoxicity control, cherry-picks, 26 µM top dose (AID 1053119); assay type: functional, cell-based
[20] = inhibitors of fibronectin matrix deposition, dose response, AH1F cells, Alexa488-FN fluorescence, cherry-picks (AID 1035475); assay type: functional, cell-based
[21] = HEK293T cytotoxicity, dose response, cytotoxicity control for miR-122 modulator project, cell-based, inhibitor set, cherry-pick, set 2 (AID 720697); assay type: functional
[22] = IOSE-T80 ovarian epithelial cell cytotoxicity, dose response, cytotoxicity control for PAX8 inhibitor project, plate reader, dry powder samples (AID 743045); assay type: functional, cell-based
[23] = IGROV1 ovarian cancer cell cytotoxicity, dose response, PAX8 inhibitor project, plate reader, dry powder samples (AID 743043); assay type: functional, cell-based; details: IGROV-1
Paired box protein Pax-8 = Paired box protein Pax-8 (Homo sapiens, UniProt Q06710); assay: inhibitors of PAX8-driven TPO luciferase reporter, dose response, RMG-I cells, cherry-pick (AID 687027); assay type: functional, cell-based;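 further: luciferase reporter driven by Pax8 target thyroperoxidase promoter measured by SteadyGlo luminescence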
[24] = NIH:OVCAR-3 ovarian cancer cell cytotoxicity, dose response, PAX8 inhibitor project, plate reader, dry powder samples (AID 743044); assay type: functional, cell-based
[25] = A2780 ovarian cancer cell cytotoxicity, dose response, cytotoxicity control, plate reader, dry powder samples (AID 743046); assay type: functional, cell-based

1-phosphatidylinositol 4,5-bisphosphate phosphodiesterase beta-3, sequence (Q01970 whole entry): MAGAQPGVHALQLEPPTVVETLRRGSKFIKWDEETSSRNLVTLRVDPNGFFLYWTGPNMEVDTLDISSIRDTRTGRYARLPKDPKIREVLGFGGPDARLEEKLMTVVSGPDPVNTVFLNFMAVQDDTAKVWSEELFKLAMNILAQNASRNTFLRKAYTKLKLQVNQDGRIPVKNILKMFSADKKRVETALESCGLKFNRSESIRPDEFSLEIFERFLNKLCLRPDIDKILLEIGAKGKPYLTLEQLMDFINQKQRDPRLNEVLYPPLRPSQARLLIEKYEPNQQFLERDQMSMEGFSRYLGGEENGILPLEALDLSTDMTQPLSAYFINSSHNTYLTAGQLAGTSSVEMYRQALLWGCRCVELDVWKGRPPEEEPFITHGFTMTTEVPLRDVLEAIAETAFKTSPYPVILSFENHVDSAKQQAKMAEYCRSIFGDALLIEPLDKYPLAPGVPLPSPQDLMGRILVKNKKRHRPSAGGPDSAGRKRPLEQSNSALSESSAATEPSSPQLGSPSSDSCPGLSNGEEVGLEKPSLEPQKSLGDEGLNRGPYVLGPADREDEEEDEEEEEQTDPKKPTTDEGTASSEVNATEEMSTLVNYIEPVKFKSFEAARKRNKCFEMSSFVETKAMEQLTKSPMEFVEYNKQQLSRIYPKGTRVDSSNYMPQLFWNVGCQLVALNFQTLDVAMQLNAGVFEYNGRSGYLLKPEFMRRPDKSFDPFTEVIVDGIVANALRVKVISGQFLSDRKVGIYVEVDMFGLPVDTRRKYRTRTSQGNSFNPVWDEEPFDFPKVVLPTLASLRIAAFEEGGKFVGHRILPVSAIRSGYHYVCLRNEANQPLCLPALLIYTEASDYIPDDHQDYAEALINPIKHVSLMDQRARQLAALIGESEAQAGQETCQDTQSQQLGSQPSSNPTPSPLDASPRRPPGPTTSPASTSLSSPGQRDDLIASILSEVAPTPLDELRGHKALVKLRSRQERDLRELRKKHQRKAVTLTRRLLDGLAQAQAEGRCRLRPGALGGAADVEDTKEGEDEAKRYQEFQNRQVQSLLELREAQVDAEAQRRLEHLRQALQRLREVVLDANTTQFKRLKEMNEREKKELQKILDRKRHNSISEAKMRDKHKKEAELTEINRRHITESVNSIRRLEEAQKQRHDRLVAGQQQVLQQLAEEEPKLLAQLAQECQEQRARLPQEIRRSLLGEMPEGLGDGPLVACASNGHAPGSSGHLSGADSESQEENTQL
ATP-dependent translocase ABCB1, sequence (P08183 whole entry): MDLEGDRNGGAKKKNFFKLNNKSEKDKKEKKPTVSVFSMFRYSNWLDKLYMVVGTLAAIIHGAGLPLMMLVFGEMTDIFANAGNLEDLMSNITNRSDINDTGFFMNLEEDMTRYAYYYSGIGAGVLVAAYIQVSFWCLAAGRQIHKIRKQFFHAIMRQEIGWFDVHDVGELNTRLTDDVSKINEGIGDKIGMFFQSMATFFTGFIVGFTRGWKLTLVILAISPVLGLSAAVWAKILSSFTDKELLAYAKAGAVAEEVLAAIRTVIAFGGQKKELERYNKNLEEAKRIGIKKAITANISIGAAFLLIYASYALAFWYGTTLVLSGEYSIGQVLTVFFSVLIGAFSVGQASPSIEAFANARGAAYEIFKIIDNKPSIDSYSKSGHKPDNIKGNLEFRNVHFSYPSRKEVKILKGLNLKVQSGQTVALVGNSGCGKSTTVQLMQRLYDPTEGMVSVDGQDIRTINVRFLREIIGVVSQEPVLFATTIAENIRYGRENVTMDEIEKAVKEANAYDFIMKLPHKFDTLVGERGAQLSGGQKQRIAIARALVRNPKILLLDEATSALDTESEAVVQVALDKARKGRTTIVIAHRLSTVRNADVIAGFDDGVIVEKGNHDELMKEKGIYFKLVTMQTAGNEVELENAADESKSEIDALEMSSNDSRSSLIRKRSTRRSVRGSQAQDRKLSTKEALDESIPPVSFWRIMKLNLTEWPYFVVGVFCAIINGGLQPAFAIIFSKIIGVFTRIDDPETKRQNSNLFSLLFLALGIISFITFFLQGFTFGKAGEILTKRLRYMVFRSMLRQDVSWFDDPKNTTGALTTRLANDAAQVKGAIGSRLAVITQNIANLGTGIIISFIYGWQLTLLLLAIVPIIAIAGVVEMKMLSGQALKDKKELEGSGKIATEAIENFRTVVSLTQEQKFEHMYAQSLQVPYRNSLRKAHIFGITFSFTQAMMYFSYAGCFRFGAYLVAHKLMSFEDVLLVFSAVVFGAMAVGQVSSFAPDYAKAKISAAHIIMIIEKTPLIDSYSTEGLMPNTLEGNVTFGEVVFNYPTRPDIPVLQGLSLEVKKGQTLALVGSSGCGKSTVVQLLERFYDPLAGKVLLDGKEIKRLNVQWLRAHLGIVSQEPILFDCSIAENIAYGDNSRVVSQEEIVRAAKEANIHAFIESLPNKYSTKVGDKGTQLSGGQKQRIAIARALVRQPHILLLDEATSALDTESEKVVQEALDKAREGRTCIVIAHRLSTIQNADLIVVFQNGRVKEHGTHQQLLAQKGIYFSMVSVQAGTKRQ
1-phosphatidylinositol 4,5-bisphosphate phosphodiesterase gamma-1, sequence (P19174 whole entry): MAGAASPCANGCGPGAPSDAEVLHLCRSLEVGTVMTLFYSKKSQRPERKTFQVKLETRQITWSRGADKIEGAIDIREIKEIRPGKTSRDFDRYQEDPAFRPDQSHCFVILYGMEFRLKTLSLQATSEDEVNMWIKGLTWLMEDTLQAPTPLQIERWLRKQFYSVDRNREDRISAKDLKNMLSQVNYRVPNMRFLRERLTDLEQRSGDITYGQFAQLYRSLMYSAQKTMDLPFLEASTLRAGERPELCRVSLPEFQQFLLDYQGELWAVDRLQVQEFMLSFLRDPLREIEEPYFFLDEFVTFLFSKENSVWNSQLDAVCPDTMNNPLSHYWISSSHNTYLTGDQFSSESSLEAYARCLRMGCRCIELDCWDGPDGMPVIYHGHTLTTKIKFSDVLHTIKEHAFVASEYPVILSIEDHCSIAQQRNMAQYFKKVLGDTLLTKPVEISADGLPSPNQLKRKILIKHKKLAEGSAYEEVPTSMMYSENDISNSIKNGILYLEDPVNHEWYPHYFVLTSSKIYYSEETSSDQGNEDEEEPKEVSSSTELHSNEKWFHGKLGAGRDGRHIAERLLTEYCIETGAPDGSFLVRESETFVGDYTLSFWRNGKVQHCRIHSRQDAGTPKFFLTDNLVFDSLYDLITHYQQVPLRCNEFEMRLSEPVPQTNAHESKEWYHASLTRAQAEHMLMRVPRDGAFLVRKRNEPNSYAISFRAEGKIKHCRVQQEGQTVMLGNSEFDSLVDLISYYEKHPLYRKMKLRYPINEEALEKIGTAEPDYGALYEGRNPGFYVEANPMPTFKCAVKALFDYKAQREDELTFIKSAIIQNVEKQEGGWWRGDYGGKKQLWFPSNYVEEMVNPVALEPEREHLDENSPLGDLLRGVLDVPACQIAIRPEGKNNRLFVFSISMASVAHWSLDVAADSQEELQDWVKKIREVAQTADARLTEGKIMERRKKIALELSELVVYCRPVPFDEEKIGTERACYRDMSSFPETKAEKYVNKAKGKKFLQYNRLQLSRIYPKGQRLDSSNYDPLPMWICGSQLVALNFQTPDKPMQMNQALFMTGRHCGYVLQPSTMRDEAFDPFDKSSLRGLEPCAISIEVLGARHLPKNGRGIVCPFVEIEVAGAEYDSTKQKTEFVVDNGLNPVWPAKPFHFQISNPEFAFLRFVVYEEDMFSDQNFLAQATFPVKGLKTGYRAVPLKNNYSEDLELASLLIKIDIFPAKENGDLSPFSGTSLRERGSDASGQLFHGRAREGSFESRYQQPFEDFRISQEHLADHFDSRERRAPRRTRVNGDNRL
Nonstructural protein 1, sequence (Q194T2 whole entry): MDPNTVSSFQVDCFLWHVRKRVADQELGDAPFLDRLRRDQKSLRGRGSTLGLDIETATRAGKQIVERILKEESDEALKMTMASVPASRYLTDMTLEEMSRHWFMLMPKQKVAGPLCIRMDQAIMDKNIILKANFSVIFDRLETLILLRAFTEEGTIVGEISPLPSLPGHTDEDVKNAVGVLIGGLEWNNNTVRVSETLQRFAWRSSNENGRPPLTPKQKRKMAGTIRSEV
Paired box protein Pax-8, sequence (Q06710 whole entry): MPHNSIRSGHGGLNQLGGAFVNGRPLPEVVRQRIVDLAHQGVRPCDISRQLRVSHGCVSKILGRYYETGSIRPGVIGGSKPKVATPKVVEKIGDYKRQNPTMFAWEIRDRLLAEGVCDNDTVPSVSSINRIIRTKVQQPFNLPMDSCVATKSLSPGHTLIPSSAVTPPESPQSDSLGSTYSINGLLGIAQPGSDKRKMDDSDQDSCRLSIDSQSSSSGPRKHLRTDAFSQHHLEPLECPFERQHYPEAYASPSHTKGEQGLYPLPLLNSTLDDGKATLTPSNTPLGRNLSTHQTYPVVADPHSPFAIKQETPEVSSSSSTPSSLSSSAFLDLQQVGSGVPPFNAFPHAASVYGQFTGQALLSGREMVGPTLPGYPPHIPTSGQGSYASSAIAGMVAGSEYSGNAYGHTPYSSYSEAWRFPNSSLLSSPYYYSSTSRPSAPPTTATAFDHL

`O=C(Nc1ccccc1)C1CCN(c2cc(-c3ccco3)nc3cc(-c4ccccc4)nn23)CC1` gave an EC50 [1] of 0.1399 µM.
In the case of `CC/C(NCC1CCCO1)=C1/C(=O)NC(=O)N(Cc2ccccc2)C1=O` (stereo not drawn), the IC50 [2] is reported as > 122 µM (inactive) and the IC50 [3] is reported as > 122 µM (inactive).
For `O=C1C(=O)N(Cc2ccc(-c3ccccc3)cc2)c2ccc(OC(F)(F)F)cc21`, the IC50 [4] was 32 µM (inactive).
In the case of `CCCCCCc1cc2cc(S(=O)(=O)c3ccc(F)cc3)c(=O)oc2cc1O`, the EC50 [5] is reported as > 53 µM (inactive), the AC50 [6] is reported as 50.4 µM (active) and the AC50 (cells) is reported as 42.1 µM (active).
In the case of `O=C(NO)c1ccc2ccccc2c1`, the IC50 [7] is reported as 15.7 µM (inactive).
In the case of `CC(C)(C)c1nnc(N/N=C/c2cc(Br)ccc2O)n(N)c1=O`, the EC50 (Hexokinase HKDC1) is reported as 19.9 µM (active), the CC50 (Vero) is reported as 5 µM (active) and the AC50 [8] is reported as 5.57 µM (active). The IC50 (Nonstructural protein 1) was 16.6 µM (active), the EC50 (Streptococcus) was 3.18 µM (active) and the EC50 (Hexokinase-1) was > 80 µM (inactive). For the same compound, the IC50 [9] was 2.08 µM (active), the EC50 (BJ [10]) was 1.24 µM (active) and the IC50 [11] was 1.81 µM (active). For the same compound, the AC50 (INS1) was 0.859 µM (active), the EC50 (BJ [12]) was 0.706 µM (inconclusive) and the AC50 [13] was 5.77 µM (active). For the same compound, the EC50 (BJ [14]) was 0.681 µM (active), the EC50 (BJ [15]) was 3.69 µM (inconclusive) and the EC50 [16] was 2.91 µM (active). For the same compound, the EC50 [17] was 1.01 µM (active).
In the case of `CCOc1cccc(C(=O)Nc2ccc(N(CC)CC)cc2)c1`, the AC50 [18] is reported as 34.6 µM (active), the AC50 [19] is reported as > 52 µM (inactive) and the AC50 [20] is reported as 64.4 µM (active).
For `COc1cccc(NC(=O)Nc2ccc3c(c2)C(=O)N(C)C[C@@H](OC)[C@@H](C)CN[C@H](C)CO3)c1`, the AC50 [21] was 1.49 µM (active).
With `C[C@@H]1CN([C@H](C)CO)C(=O)c2cc(NC(=O)Nc3ccc(C(F)(F)F)cc3)ccc2O[C@@H](C)CCCCO[C@@H]1CN(C)Cc1ccncc1` the AC50 [22] was 56.4 µM (active), the AC50 [23] was 41.8 µM (active) and the AC50 (Paired box protein Pax-8) was 4.21 µM (active). The AC50 [24] was 14.8 µM (active) and the AC50 [25] was 56.9 µM (active).

— ChEMBL document CHEMBL1201862, “PubChem BioAssay data set” (2004)
